21 compounds from ChEMBL document CHEMBL1127762, “Five-membered heterocyclic amines as potential anti-rheumatoid arthritis agents” (Bioorg Med Chem Lett, 1994) can be followed below.

The structures appear in SMILES notation.

The nature of series [1]: Partition coefficient (logP). The following applies: octanol/water.
Series [2] concerns Rattus norvegicus. Nature of the series: Percent reduction in paw volume ([…], days 9-18) by 33 mg/kg p.o. in rats. The format is functional. The following applies: route oral.
Series [3] deals with Rattus norvegicus. As to the kind of experiment: Improvement in joint mobility at 33 mg/kg p.o. in rat model of arthritis. The format is functional. The following applies: route oral.
The test system of series [4] is Rattus norvegicus. Nature of the series: Percent reduction in paw volume (right primary lesion, days 0-8) by 33 mg/kg p.o. in rats. The format is functional. The following applies: route oral.
Series [5] relates to Rattus norvegicus. As to the kind of experiment: Percent reduction in paw volume (right primary lesion, days 9-18) by 33 mg/kg p.o. in rats. The format is functional. The following applies: route oral.
Series [6] concerns Rattus norvegicus. As to the kind of experiment: Antiarthritic activity by measuring percent reduction in paw volume in Sprague Dawley rat by peroral administration of 33 mg/kg. The format is functional. The following applies: route oral.
In series [7] the test system is Rattus norvegicus. Nature of the series: Antiarthritic activity by measuring % reduction in paw volume in Sprague Dawley rat, peroral administration of 10 mg/kg, volume change in the uninjected paw([…]) measured from day 9 to day 18. The format is functional. The following applies: route oral.

`Nc1ncns1` gave a logP in series [1] of 0.66. The Reduction in the series with Rattus norvegicus [2] is listed as 106%; in the series with Rattus norvegicus [3] it was 69%; in the series on Rattus norvegicus [4], 45%; with Rattus norvegicus [5], 59%.

The compound `Nc1nc(-c2cnccn2)ns1` had a logP in series [1] of 0.52. The Reduction is reported as 24% with Rattus norvegicus [2], 6% with Rattus norvegicus [3], 10% in the series with Rattus norvegicus [4] and 17% in the series with Rattus norvegicus [5].

With `Nc1n[nH]c(-c2ccccn2)n1`, the Reduction in the series on Rattus norvegicus [2] turned out to be 60%; in the series with Rattus norvegicus [3], 21%; with Rattus norvegicus [4], 3%; in the series with Rattus norvegicus [5], 32%.

Consider `CC(=O)Nc1nc(-c2cc(C(C)(C)C)c(O)c(C(C)(C)C)c2)no1`, for which the Reduction with Rattus norvegicus [2] is recorded as 79%; in the series on Rattus norvegicus [3] it was 75%; in the series with Rattus norvegicus [4] it was 80%; in the series with Rattus norvegicus [5] it was 66%.

In series [1], `Nc1nc(-c2ccc(Cl)cc2)ns1` showed a logP of 2.83. Besides, the Reduction turned out to be 46% in the series on Rattus norvegicus [2], 18% in the series with Rattus norvegicus [3], 20% in the series with Rattus norvegicus [4] and 50% with Rattus norvegicus [5].

Consider `Nc1nc(-c2ncccn2)ns1`, for which the logP in series [1] amounted to 0.08. The Reduction in the series with Rattus norvegicus [2] came to 5%; in the series with Rattus norvegicus [3] it was 30%; with Rattus norvegicus [4], 28%; in the series on Rattus norvegicus [5], 31%.

In the case of `Nc1nc(-c2ccccn2)ns1`, in series [1], the logP was found to be 1.05. For the same compound, the Reduction in the series with Rattus norvegicus [2] stood at 65%; in the series on Rattus norvegicus [3], 70%; in the series with Rattus norvegicus [4], 8%; in the series with Rattus norvegicus [5], 44%.

`Nc1nc(Cc2ccccc2)ns1` gave a logP in series [1] of 2.05. Besides, the Reduction in the series with Rattus norvegicus [2] came to 77%; with Rattus norvegicus [3], 36%; in the series on Rattus norvegicus [4], 28%; in the series with Rattus norvegicus [5], 42%.

The compound `Nc1nc(-c2cccnc2)ns1` came in with a logP in series [1] of 1.58. Moreover, the Reduction was 49% in the series on Rattus norvegicus [2], 24% with Rattus norvegicus [3], 15% in the series on Rattus norvegicus [4] and 22% with Rattus norvegicus [5].

On to `CC(C)(C)c1cc(-c2noc(N)n2)cc(C(C)(C)C)c1O`, for which the logP in series [1] was 3.72. Also, the Reduction in the series with Rattus norvegicus [2] is 103%; in the series on Rattus norvegicus [3], 89%; with Rattus norvegicus [4], 47%; with Rattus norvegicus [5], 56%.

On to `O=C(Nc1nc(-c2ccccc2)ns1)OCC(Cl)(Cl)Cl`, for which the Reduction with Rattus norvegicus [2] turned out to be 68%; with Rattus norvegicus [3], 42%; in the series on Rattus norvegicus [4] it was 50%; with Rattus norvegicus [5], 45%.

As for `Nc1nc(-c2ccccn2)no1`, the Reduction in the series on Rattus norvegicus [2] came out at 66%; in the series on Rattus norvegicus [3] it was 8%; in the series on Rattus norvegicus [4], 24%; in the series on Rattus norvegicus [5], 22%.

In series [1], `CC(C)(C)c1nsc(N)n1` had a logP of 1.78. Moreover, the Reduction was determined as 45% in the series with Rattus norvegicus [2], 28% in the series with Rattus norvegicus [3], 16% in the series on Rattus norvegicus [4] and 30% in the series on Rattus norvegicus [5].

Regarding `Nc1nc(-c2ccncc2)ns1`, in series [1], the logP is 1.72. Besides, the Reduction in the series with Rattus norvegicus [2] is on record as 74%; with Rattus norvegicus [3], 33%; with Rattus norvegicus [4] it was 11%; with Rattus norvegicus [5], 20%.

As to `Nc1nc(-c2cccs2)ns1`, the logP in series [1] came out at 1.77. The Reduction came to 43% with Rattus norvegicus [2], 7% in the series on Rattus norvegicus [3], 6% with Rattus norvegicus [4] and 25% in the series on Rattus norvegicus [5].

With `CCCc1nsc(N)n1`, the logP in series [1] worked out at 1.12. Further, the Reduction in the series on Rattus norvegicus [2] amounted to 54%; in the series on Rattus norvegicus [3] it was 47%; with Rattus norvegicus [4], 13%; in the series with Rattus norvegicus [5], 40%.

As for `Nc1nc(-c2ccccc2)ns1`, the Reduction in the series with Rattus norvegicus [2] was 84%; in the series on Rattus norvegicus [3], 13%; in the series on Rattus norvegicus [4], 22%; in the series with Rattus norvegicus [5], 51%.

For `CC(C)(C)c1ccc(-c2nsc(N)n2)cc1`, the logP in series [1] was 1.78. The Reduction with Rattus norvegicus [2] was 6%; with Rattus norvegicus [6], 2%; with Rattus norvegicus [3], 18%; with Rattus norvegicus [4] it was 27%.

Compound `Cc1nsc(N)n1` gave a logP in series [1] of 0. Also, the Reduction with Rattus norvegicus [2] is 66%; with Rattus norvegicus [3], 84%; in the series with Rattus norvegicus [4], 38%; with Rattus norvegicus [5] it was 50%.

On to `Nc1nc[nH]n1` [AMITROLE], for which the Reduction is listed as 57% in the series on Rattus norvegicus [2], 26% in the series with Rattus norvegicus [3], 27 in the series with Rattus norvegicus [4] and 46% in the series on Rattus norvegicus [5].

Take `C/C=C/C[C@@H](C)[C@@H](O)[C@H]1C(=O)N[C@@H](CC)C(=O)N(C)CC(=O)N(C)[C@@H](CC(C)C)C(=O)N[C@@H](C(C)C)C(=O)N(C)[C@@H](CC(C)C)C(=O)N[C@@H](C)C(=O)N[C@H](C)C(=O)N(C)[C@@H](CC(C)C)C(=O)N(C)[C@@H](CC(C)C)C(=O)N(C)[C@@H](C(C)C)C(=O)N1C` [CYCLOSPORINE]: the Reduction came to 77% in the series on Rattus norvegicus [7] and 51% in the series with Rattus norvegicus [4].

Broadly, the logP is a log measure of how a compound divides between an organic and an aqueous phase. High values mean a more lipophilic compound, low ones a more hydrophilic compound.
